For orientation: inhibition means how much of the control response was suppressed.

Each structure is given as a SMILES string. Active and inactive are the calls of the source. No cut-off for these calls is given here.

In assay [1] the target is T1, Signal transducer and activator of transcription 1-alpha/beta (Homo sapiens) (UniProt P42224).
T1 sequence (whole entry): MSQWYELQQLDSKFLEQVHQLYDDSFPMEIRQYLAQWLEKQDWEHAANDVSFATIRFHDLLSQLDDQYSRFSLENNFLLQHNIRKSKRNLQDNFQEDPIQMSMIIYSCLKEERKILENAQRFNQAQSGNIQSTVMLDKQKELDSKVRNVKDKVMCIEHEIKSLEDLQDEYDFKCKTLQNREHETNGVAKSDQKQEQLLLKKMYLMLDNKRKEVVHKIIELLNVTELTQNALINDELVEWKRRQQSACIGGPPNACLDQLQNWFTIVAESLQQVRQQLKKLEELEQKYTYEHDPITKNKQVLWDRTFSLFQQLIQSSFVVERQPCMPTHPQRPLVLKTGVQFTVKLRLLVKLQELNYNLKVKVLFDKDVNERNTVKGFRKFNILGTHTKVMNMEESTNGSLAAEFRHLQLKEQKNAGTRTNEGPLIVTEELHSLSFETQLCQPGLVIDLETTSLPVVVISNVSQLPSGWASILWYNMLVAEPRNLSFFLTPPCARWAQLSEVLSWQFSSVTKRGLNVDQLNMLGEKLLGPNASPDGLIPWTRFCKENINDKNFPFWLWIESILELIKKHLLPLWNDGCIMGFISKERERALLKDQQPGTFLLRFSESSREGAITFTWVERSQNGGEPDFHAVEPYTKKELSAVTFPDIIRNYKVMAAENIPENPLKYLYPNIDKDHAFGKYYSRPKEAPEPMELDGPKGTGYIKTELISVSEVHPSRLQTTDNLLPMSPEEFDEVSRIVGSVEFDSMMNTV
Description: Induction of STAT1 phosphorylation in human HeLa cells at 30 to 100 uM by Western blot analysis. The assay is classed as cell-based.

Assay [2] concerns the target Signal transducer and activator of transcription 3 (Homo sapiens) (UniProt P40763). The experiment in a line: Inhibition of STAT3 in IL-6-stimulated human MDA-MB-231 cells assessed as reduction in cell viability up to 125 uM after 24 hrs by MTS assay. The class given is cell-based. A general note: Tetrazolium dyes change colour on reduction, which living cells bring about.

Assay [3] concerns MDA-MB-231. Description: Cytostatic activity against human MDA-MB-231 cells assessed as cell viability after 24 hrs by trypan blue assay. The assay is classed as functional, cell-based.
The target of assay [4] is Signal transducer and activator of transcription 3 (Homo sapiens) (UniProt P40763). The experiment in a line: Inhibition of STAT3 in human HeLa cells at 5 to 100 uM by luciferase reporter assay. The class given is cell-based. For orientation: In a reporter assay the amount or activity of a reporter protein is the signal.
Sequence of Signal transducer and activator of transcription 3 (Homo sapiens) (P40763 whole entry): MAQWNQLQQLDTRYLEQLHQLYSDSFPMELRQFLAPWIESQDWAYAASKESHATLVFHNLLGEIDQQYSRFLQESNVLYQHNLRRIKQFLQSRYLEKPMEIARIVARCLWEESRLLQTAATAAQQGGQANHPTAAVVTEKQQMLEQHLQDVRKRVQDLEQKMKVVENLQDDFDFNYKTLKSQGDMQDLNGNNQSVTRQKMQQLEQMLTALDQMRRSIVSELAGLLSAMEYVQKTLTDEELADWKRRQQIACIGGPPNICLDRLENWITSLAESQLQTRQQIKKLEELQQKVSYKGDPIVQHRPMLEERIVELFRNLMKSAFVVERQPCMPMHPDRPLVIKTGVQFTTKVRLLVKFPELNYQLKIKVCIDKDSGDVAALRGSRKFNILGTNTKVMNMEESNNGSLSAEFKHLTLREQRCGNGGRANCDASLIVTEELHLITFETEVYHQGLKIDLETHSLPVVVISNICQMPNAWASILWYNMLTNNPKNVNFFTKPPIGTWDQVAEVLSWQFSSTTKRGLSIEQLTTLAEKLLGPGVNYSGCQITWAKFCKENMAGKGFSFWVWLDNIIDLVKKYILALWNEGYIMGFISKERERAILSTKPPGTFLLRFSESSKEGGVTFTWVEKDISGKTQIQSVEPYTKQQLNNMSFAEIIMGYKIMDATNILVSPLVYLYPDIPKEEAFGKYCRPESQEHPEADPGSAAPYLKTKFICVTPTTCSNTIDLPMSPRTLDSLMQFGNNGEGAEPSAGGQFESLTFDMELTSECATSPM
For assay [5] the target is unchanged. The experiment in a line: Inhibition of IL-6 induced STAT3 phosphorylation at tyrosine 705 residue in serum-starved human MDA-MB-231 cells at 30 to 100 uM after 20 mins by Western blot analysis. The class given is cell-based.
Assay [6] has the same target. Description: Inhibition of IL-6 induced STAT3 phosphorylation at tyrosine 705 residue in serum-starved human HeLa cells at 10 to 30 uM after 20 mins by Western blot analysis. The class given is cell-based. For orientation: In western blotting, separated proteins are transferred to a membrane and probed.

With `Cc1ccc(-c2sc(C(=O)NCc3cccs3)cc2S(=O)(=O)N2CCCC2)cc1`, the result in assay [1], in assay [5] and in assay [6] was Active. For the same compound, in assay [2], the inhibition was 40%. Besides, the outcome in assay [3] was inactive. Besides, the Activity in assay [4] turned out to be 15 µM.
